Assays:
CEM-TK(-) [1] = test: Tested for cytotoxicity against human CEM-TK- cell line (deficient in thymidine kinase activity); assay type: functional
CEM-TK(-) [2] = test: Tested for antiviral activity against HIV-1 infected human CEM-TK- cell line (deficient in thymidine kinase activity); assay type: functional, cell-based
CEM-SS [3] = test: Tested for cytotoxicity against human CEM-SS cell line; Percent reduction 40; assay type: functional
CEM-SS [4] = test: Tested for antiviral activity against HIV-1 infected human CEM-SS cell line; assay type: functional, cell-based
CEM-SS [5] = test: Tested for cytotoxicity against human CEM-SS cell line; assay type: functional

Row | EC50 (CEM-TK(-) [2]) [µM] | EC50 (CEM-SS [4]) [µM] | Structure (SMILES) | CC50 (CEM-TK(-) [1]) [µM] | CC50 (CEM-SS [3]) [µM] | CC50 (CEM-SS [5]) [µM]
1 | 8 | 60 | O=c1ccn(C2CCC(COP(=O)(OCCSSCCO)OCCSSCCO)O2)c(=O)[nH]1 (stereo not drawn) | 80 | > 100 | –
2 | 4 | 5 | CC(=O)SCCOP(=O)(OCCSC(C)=O)OCC1CCC(n2ccc(=O)[nH]c2=O)O1 (stereo not drawn) | 70 | – | 900

Source: ChEMBL document CHEMBL1127147, “Rational design for cytosolic delivery of nucleoside monphosphates : SATE and DTE as enzyme-labile transient phosphate protecting groups” (Bioorg Med Chem Lett, 1993)
